According to the NIST ThermoML archive (doi:10.1021/acs.jced.8b00157):
Several values for one entry are separate records, joined by “and”; a condition that tells them apart may be missing. Equal values may be shown once. ± gives the expanded uncertainty stated by the source.

Assay: an = ratio of the nth substance listed
Details: 100 kPa, Liquid, Buoyancy - hydrostatic balance, a2 = 1.3

[F][Al]([F])[F] [aluminum fluoride] + [F-].[K+]
Details | mass density
953.37 K | 1875 ± 10 kg/m3
953.87 K | 1875 ± 11 kg/m3
954.03 K | 1875 ± 11 kg/m3
954.2 K | 1874 ± 10 kg/m3
954.52 K | 1874 ± 11 kg/m3
954.85 K | 1873 ± 10 kg/m3
955.23 K | 1873 ± 10 kg/m3
955.66 K | 1873 ± 10 kg/m3
955.95 K | 1873 ± 10 kg/m3
956.45 K | 1873 ± 11 kg/m3
957 K | 1872 ± 10 kg/m3
957.09 K | 1872 ± 10 kg/m3
957.11 K | 1872 ± 11 kg/m3
957.15 K | 1872 ± 11 kg/m3
957.8 K | 1871 ± 11 kg/m3
958.17 K | 1871 ± 11 kg/m3
958.39 K | 1870 ± 10 kg/m3
958.54 K | 1870 ± 10 kg/m3
958.92 K | 1870 ± 10 kg/m3
959.36 K | 1870 ± 10 kg/m3
959.42 K | 1870 ± 10 kg/m3
959.67 K | 1870 ± 10 kg/m3
960.14 K | 1869 ± 11 kg/m3
960.36 K | 1869 ± 10 kg/m3
961.06 K | 1868 ± 10 kg/m3
961.27 K | 1868 ± 10 kg/m3
961.32 K | 1868 ± 10 kg/m3
961.88 K | 1868 ± 10 kg/m3
961.97 K | 1868 ± 11 kg/m3
962.58 K | 1867 ± 10 kg/m3
962.79 K | 1866 ± 10 kg/m3
962.82 K | 1867 ± 10 kg/m3
963.09 K | 1867 ± 11 kg/m3
963.44 K | 1866 ± 10 kg/m3
963.53 K | 1866 ± 10 kg/m3
964.23 K | 1865 ± 10 kg/m3
964.32 K | 1865 ± 11 kg/m3
964.85 K | 1865 ± 10 kg/m3
965.05 K | 1865 ± 10 kg/m3
965.38 K | 1865 ± 10 kg/m3
965.94 K | 1864 ± 10 kg/m3
966 K | 1864 ± 10 kg/m3
966.18 K | 1864 ± 10 kg/m3
966.56 K | 1864 ± 10 kg/m3
966.7 K | 1863 ± 10 kg/m3
967.24 K | 1863 ± 10 kg/m3
967.73 K | 1862 ± 10 kg/m3
967.75 K | 1862 ± 10 kg/m3
968.06 K | 1862 ± 10 kg/m3
968.94 K | 1862 ± 11 kg/m3
968.96 K | 1862 ± 11 kg/m3
969.15 K | 1861 ± 10 kg/m3
969.33 K | 1861 ± 10 kg/m3
969.99 K | 1861 ± 10 kg/m3
970.3 K | 1861 ± 10 kg/m3
970.44 K | 1860 ± 10 kg/m3
970.89 K | 1860 ± 10 kg/m3
970.98 K | 1859 ± 10 kg/m3
971.14 K | 1860 ± 11 kg/m3
971.87 K | 1859 ± 11 kg/m3
972.13 K | 1859 ± 11 kg/m3
972.25 K | 1859 ± 11 kg/m3
972.6 K | 1859 ± 11 kg/m3
972.98 K | 1858 ± 11 kg/m3
973.21 K | 1858 ± 11 kg/m3
973.66 K | 1858 ± 11 kg/m3
973.77 K | 1858 ± 11 kg/m3
973.95 K | 1857 ± 11 kg/m3
974.37 K | 1857 ± 11 kg/m3
974.77 K | 1857 ± 11 kg/m3
975.15 K | 1856 ± 11 kg/m3
975.67 K | 1856 ± 11 kg/m3
975.77 K | 1856 ± 11 kg/m3
975.97 K | 1856 ± 11 kg/m3
976.61 K | 1855 ± 11 kg/m3
976.86 K | 1855 ± 11 kg/m3
976.9 K | 1855 ± 11 kg/m3
977.25 K | 1854 ± 11 kg/m3
977.4 K | 1854 ± 11 kg/m3
977.66 K | 1852 ± 11 kg/m3
978.13 K | 1852 ± 11 kg/m3
978.34 K | 1852 ± 11 kg/m3
978.99 K | 1852 ± 11 kg/m3
979.14 K | 1851 ± 11 kg/m3
979.65 K | 1850 ± 11 kg/m3
979.83 K | 1851 ± 11 kg/m3
980.46 K | 1850 ± 11 kg/m3
980.58 K | 1850 ± 11 kg/m3
980.92 K | 1850 ± 11 kg/m3
980.95 K | 1850 ± 11 kg/m3
981.3 K | 1849 ± 11 kg/m3
981.38 K | 1849 ± 11 kg/m3
982.18 K | 1849 ± 11 kg/m3
982.5 K | 1849 ± 11 kg/m3
982.75 K | 1848 ± 11 kg/m3
983.17 K | 1848 ± 11 kg/m3
983.33 K | 1847 ± 11 kg/m3
983.99 K | 1847 ± 10 kg/m3
984.08 K | 1847 ± 10 kg/m3
984.17 K | 1847 ± 10 kg/m3
984.63 K | 1846 ± 10 kg/m3
985 K | 1846 ± 10 kg/m3
985.5 K | 1846 ± 10 kg/m3
985.61 K | 1846 ± 10 kg/m3
986.09 K | 1845 ± 10 kg/m3
986.53 K | 1845 ± 10 kg/m3
986.96 K | 1845 ± 10 kg/m3
987.09 K | 1845 ± 10 kg/m3
987.31 K | 1844 ± 10 kg/m3
987.8 K | 1844 ± 10 kg/m3
988.08 K | 1844 ± 10 kg/m3
988.26 K | 1844 ± 11 kg/m3
988.64 K | 1843 ± 10 kg/m3
988.78 K | 1844 ± 10 kg/m3
989.33 K | 1843 ± 10 kg/m3
989.41 K | 1843 ± 10 kg/m3
990.26 K | 1842 ± 10 kg/m3
990.32 K | 1842 ± 10 kg/m3
991.02 K | 1842 ± 10 kg/m3
991.03 K | 1841 ± 10 kg/m3
991.17 K | 1842 ± 10 kg/m3
991.49 K | 1841 ± 10 kg/m3
992.13 K | 1841 ± 10 kg/m3
992.28 K | 1840 ± 10 kg/m3
992.47 K | 1841 ± 10 kg/m3
992.66 K | 1842 ± 10 kg/m3
992.84 K | 1842 ± 10 kg/m3
993.1 K | 1842 ± 10 kg/m3
993.15 K | 1840 ± 10 kg/m3
993.49 K | 1839 ± 10 kg/m3
993.5 K | 1840 ± 10 kg/m3
993.57 K | 1841 ± 10 kg/m3
993.62 K | 1840 ± 10 kg/m3
993.79 K | 1839 ± 10 kg/m3
993.81 K | 1841 ± 10 kg/m3
993.83 K | 1841 ± 10 kg/m3
994.35 K | 1838 ± 10 kg/m3
994.37 K | 1839 ± 10 kg/m3
994.52 K | 1838 ± 10 kg/m3
994.62 K | 1840 ± 10 kg/m3
995.21 K | 1838 ± 10 kg/m3
995.25 K | 1840 ± 10 kg/m3
995.47 K | 1840 ± 10 kg/m3
995.64 K | 1840 ± 10 kg/m3
995.66 K | 1838 ± 10 kg/m3
996.05 K | 1838 ± 10 kg/m3
996.18 K | 1839 ± 10 kg/m3
996.21 K | 1838 ± 10 kg/m3
996.6 K | 1839 ± 10 kg/m3
996.7 K | 1837 ± 10 kg/m3
996.81 K | 1836 ± 10 kg/m3
996.88 K | 1839 ± 10 kg/m3
997.13 K | 1836 ± 10 kg/m3
997.4 K | 1836 ± 10 kg/m3
997.41 K | 1838 ± 10 kg/m3
997.63 K | 1838 ± 10 kg/m3
997.84 K | 1837 ± 10 kg/m3
997.92 K | 1836 ± 10 kg/m3
997.99 K | 1836 ± 10 kg/m3
998.24 K | 1835 ± 11 kg/m3
998.66 K | 1837 ± 10 kg/m3
998.67 K | 1837 ± 11 kg/m3
998.83 K | 1835 ± 11 kg/m3
999.09 K | 1836 ± 11 kg/m3
999.14 K | 1836 ± 11 kg/m3
999.24 K | 1836 ± 10 kg/m3
999.27 K | 1835 ± 10 kg/m3
999.3 K | 1837 ± 10 kg/m3
999.38 K | 1837 ± 10 kg/m3
999.39 K | 1835 ± 10 kg/m3
999.51 K | 1836 ± 10 kg/m3
999.7 K | 1834 ± 10 kg/m3
1000.2 K | 1834 ± 10 kg/m3
1000.5 K | 1835 ± 10 kg/m3
1000.8 K | 1833 ± 11 kg/m3
1000.9 K | 1834 ± 10 kg/m3
1001.1 K | 1835 ± 11 kg/m3
1001.3 K | 1834 ± 11 kg/m3
1001.4 K | 1833 ± 11 kg/m3
1001.5 K | 1834 ± 11 kg/m3
1001.6 K | 1833 ± 11 kg/m3
1001.7 K | 1834 ± 11 kg/m3
1002.2 K | 1832 ± 11 kg/m3 and 1833 ± 10 kg/m3
1002.4 K | 1833 ± 11 kg/m3
1002.7 K | 1833 ± 11 kg/m3
1002.9 K | 1832 ± 11 kg/m3 and 1832 ± 10 kg/m3
1003.4 K | 1832 ± 10 kg/m3 and 1832 ± 11 kg/m3
1003.5 K | 1831 ± 11 kg/m3
1003.7 K | 1832 ± 11 kg/m3
1004.2 K | 1831 ± 11 kg/m3
1004.3 K | 1831 ± 10 kg/m3 and 1830 ± 10 kg/m3
1004.8 K | 1831 ± 11 kg/m3 and 1830 ± 11 kg/m3
1005 K | 1831 ± 10 kg/m3
1005.1 K | 1831 ± 11 kg/m3 and 1830 ± 11 kg/m3
1005.6 K | 1830 ± 11 kg/m3
1005.7 K | 1830 ± 11 kg/m3
1006 K | 1829 ± 10 kg/m3
1006.3 K | 1830 ± 10 kg/m3
1006.4 K | 1830 ± 10 kg/m3
1006.5 K | 1830 ± 11 kg/m3 and 1829 ± 11 kg/m3
1006.9 K | 1829 ± 10 kg/m3 and 1827 ± 10 kg/m3
1007 K | 1829 ± 11 kg/m3
1007.1 K | 1828 ± 11 kg/m3
1007.3 K | 1828 ± 11 kg/m3
1007.4 K | 1828 ± 11 kg/m3 and 1829 ± 11 kg/m3
1007.7 K | 1827 ± 11 kg/m3
1007.9 K | 1827 ± 11 kg/m3
1008 K | 1827 ± 11 kg/m3
1008.2 K | 1827 ± 11 kg/m3
1008.3 K | 1828 ± 11 kg/m3
1008.5 K | 1827 ± 11 kg/m3
1008.8 K | 1827 ± 11 kg/m3
1009 K | 1827 ± 11 kg/m3
1009.2 K | 1827 ± 11 kg/m3
1009.4 K | 1827 ± 11 kg/m3
1009.6 K | 1826 ± 11 kg/m3
1009.8 K | 1826 ± 11 kg/m3
1010 K | 1825 ± 11 kg/m3
1010.1 K | 1825 ± 11 kg/m3
1010.3 K | 1825 ± 10 kg/m3
1010.7 K | 1825 ± 11 kg/m3
1010.9 K | 1825 ± 11 kg/m3
1011 K | 1825 ± 11 kg/m3
1011.1 K | 1825 ± 11 kg/m3
1011.2 K | 1825 ± 11 kg/m3
1011.3 K | 1824 ± 11 kg/m3
1011.6 K | 1823 ± 10 kg/m3
1011.7 K | 1824 ± 11 kg/m3
1012 K | 1824 ± 11 kg/m3
1012.2 K | 1824 ± 11 kg/m3
1012.4 K | 1824 ± 11 kg/m3
1012.5 K | 1824 ± 11 kg/m3
1012.6 K | 1823 ± 11 kg/m3
1012.9 K | 1824 ± 10 kg/m3
1013.1 K | 1822 ± 10 kg/m3
1013.4 K | 1823 ± 11 kg/m3
